Reference: patent US4195101A, “2',6'-Dihydroxy-9-(2,5-dihydroxyphenyl)octylphenone and its use as an anti-oxidant” (The Lion Dentifrice Co. Ltd., priority 1977, dated 1980)

Legend:
[1] = LD50, oral administration, mouse; conditions: in vivo, po
mouse = experiment: LD50, oral administration, mouse
[2] = Test II: oxygen absorption in corn salad oil, Warburg's manometer; conditions: 0.02% by weight in corn salad oil, 60° C.
Method: (§1) The above-obtained compound was tested for its anti-oxidative effects in terms of peroxide value by the active oxygen method (AOM) and also in terms of oxygen absorption. […] Each of the tests I and II are described below together with the results thereof.
The compound of the present invention was determined for the rate of oxygen absorption in a corn salad oil to which 0.02% by weight of the compound had been added. For the purpose, 2 grams of the corn salad oil sample was taken in the receptacle of Warburg's manometer with thermostat at 60°±0.1° C., which was shaken with 110 vibrations per minute in a vibration amplitude of 60 mm. The rate of oxygen absorption was determined by reading the manometer according to the procedure set forth in "Jikken Kagaku Koza" (Lectures in Experimental Chemistry), vol. 24, p. 85, 1958, Maruzen Publishing, Japan. In this testing, the receptacle was totally wrapped with an aluminum foil to prevent the photooxidation of the oil, and mercury was used as the manometer fluid in place of Brodie's solution in order to minimize any possible influence caused by fluctuations in the atmospheric pressure.
Further, in comparison, a similar test was conducted using the same corn salad oil with addition of 0.02% by weight of BHA or without addition of any anti-oxidant.

[3] = Solubility rating of 10 mg of the crystal in various solvents (Table I); type: physicochemical; conditions: for Rating of Solubility: 10 mg of crystal
Method: This compound is obtained as needle-like or plate-like crystals white to pale-yellow in appearance, tasteless, odorless and non-irritative, and has a melting point of 123.5° to 124° C. The compound is soluble in various solvents as shown in Table I. In Table I, the solubility of the compound was rated by A, B, C and D and each rating was determined for 10 mg of the crystal as follows.
A: Soluble in less than 0.1 ml of solvent.
B: Soluble in 0.1-1.0 ml of solvent.
C: Soluble in 1.0-10.0 ml of solvent.
[…]: Soluble in more than 10.0 ml of solvent.

[4] = Irritation (statement on properties of the compound)
[5] = Test I: peroxide value of refined lard by the active oxygen method (AOM); conditions: for Peroxide value: 97.5° C.
Method: as §1
Varied amounts of the compound were admixed with and uniformly dissolved in portions of refined lard each weighing 20 g to prepare test samples. Each test sample was kept in an oil bath of thermostat at 97.5°±0.5° C., while air was forcedly blown into the lard at a rate of […].
The thus treated samples of the lard were analyzed for the peroxide value (POV for brevity) periodically or at certain intervals, in accordance with the modified Lea's method as described in "Yukagaku" (Journal of Japan Oil Chemist Society), vol. 19(15), p. 340, 1970.
In comparison, similar experiments were undertaken for the samples of the same lard with addition of BHA instead of the compound of the present invention or without addition of any anti-oxidant.

[6] = Anti-oxidative activity, general statements

O=C(CCCCCCCCc1cc(O)ccc1O)c1c(O)cccc1O [Inventive compound, 2',6'-dihydroxy-9-(2,5-dihydroxyphenyl)octylphenone]
LD50 [1]: > 2000 mg/kg
LD50 value compared with BHT (mouse): about the same as in BHT
Oxygen absorption ([2]; 85 hours): 84.4 μ1/g
Oxygen absorption ([2]; 140 hours): 138.7 μ1/g
Oxygen absorption ([2]; 166 hours): 159.8 μ1/g
Oxygen absorption ([2]; 199 hours): 174.8 μ1/g
Oxygen absorption ([2]; 263 hours): 238.0 μ1/g
Oxygen absorption ([2]; 288 hours): 280.4 μ1/g
Oxygen absorption ([2]; 320 hours): 334.6 μ1/g
Oxygen absorption ([2]; 343 hours): 375.3 μ1/g
Rating of Solubility ([3]; 1,2-Dichloroethane, at 25° C.): C (Soluble in 1.0-10.0 ml of solvent)
Rating of Solubility ([3]; 1,2-Dichloroethane, at the boiling point of solvent): A (Soluble in less than 0.1 ml of solvent)
Rating of Solubility ([3]; Acetone, at 25° C.): A (Soluble in less than 0.1 ml of solvent)
Rating of Solubility ([3]; Acetone, at the boiling point of solvent): A (Soluble in less than 0.1 ml of solvent)
Rating of Solubility ([3]; Acetonitrile, at 25° C.): A (Soluble in less than 0.1 ml of solvent)
Rating of Solubility ([3]; Acetonitrile, at the boiling point of solvent): A (Soluble in less than 0.1 ml of solvent)
Rating of Solubility ([3]; Benzene, at the boiling point of solvent): B (Soluble in 0.1-1.0 ml of solvent)
Rating of Solubility ([3]; Carbon tetrachloride, at the boiling point of solvent): C (Soluble in 1.0-10.0 ml of solvent)
Rating of Solubility ([3]; Chloroform, at 25° C.): C (Soluble in 1.0-10.0 ml of solvent)
Rating of Solubility ([3]; Chloroform, at the boiling point of solvent): C (Soluble in 1.0-10.0 ml of solvent)
Rating of Solubility ([3]; Dichloromethane, at the boiling point of solvent): C (Soluble in 1.0-10.0 ml of solvent)
Rating of Solubility ([3]; Diethylether, at 25° C.): A (Soluble in less than 0.1 ml of solvent)
Rating of Solubility ([3]; Diethylether, at the boiling point of solvent): A (Soluble in less than 0.1 ml of solvent)
Rating of Solubility ([3]; Ethyl acetate, at 25° C.): A (Soluble in less than 0.1 ml of solvent)
Rating of Solubility ([3]; Ethyl acetate, at the boiling point of solvent): A (Soluble in less than 0.1 ml of solvent)
Rating of Solubility ([3]; Ethyl alcohol, at 25° C.): A (Soluble in less than 0.1 ml of solvent)
Rating of Solubility ([3]; Ethyl alcohol, at the boiling point of solvent): A (Soluble in less than 0.1 ml of solvent)
Rating of Solubility ([3]; Methyl alcohol, at 25° C.): A (Soluble in less than 0.1 ml of solvent)
Rating of Solubility ([3]; Methyl alcohol, at the boiling point of solvent): A (Soluble in less than 0.1 ml of solvent)
Rating of Solubility ([3]; Pyridine, at 25° C.): A (Soluble in less than 0.1 ml of solvent)
Rating of Solubility ([3]; Pyridine, at the boiling point of solvent): A (Soluble in less than 0.1 ml of solvent)
Rating of Solubility ([3]; Toluene, at the boiling point of solvent): B (Soluble in 0.1-1.0 ml of solvent)
solubility in ethyl acetate and ethyl alcohol ([3]; ethyl acetate and ethyl alcohol, in words): readily soluble
Rating of Solubility ([3]; iso-Propyl alcohol, at 25° C.): A (Soluble in less than 0.1 ml of solvent)
Rating of Solubility ([3]; iso-Propyl alcohol, at the boiling point of solvent): A (Soluble in less than 0.1 ml of solvent)
solubility in ligroin and chloroform ([3]; ligroin and chloroform, in words): insoluble or hardly soluble
Rating of Solubility ([3]; n-Butyl alcohol, at 25° C.): A (Soluble in less than 0.1 ml of solvent)
Rating of Solubility ([3]; n-Butyl alcohol, at the boiling point of solvent): A (Soluble in less than 0.1 ml of solvent)
Rating of Solubility ([3]; n-Propyl alcohol, at 25° C.): A (Soluble in less than 0.1 ml of solvent)
Rating of Solubility ([3]; n-Propyl alcohol, at the boiling point of solvent): A (Soluble in less than 0.1 ml of solvent)
solubility in 1,2-dichloroethane, toluene or benzene ([3]; room temperature, in words): insoluble or hardly soluble
irritation [4]: non-irritative
Peroxide value ([5]; 0.001 (% by weight) in lard, 8 hours): 2.4 meq./kg
Peroxide value ([5]; 0.001 (% by weight) in lard, 16 hours): 5.3 meq./kg
Peroxide value ([5]; 0.001 (% by weight) in lard, 24 hours): 8.2 meq./kg
Peroxide value ([5]; 0.001 (% by weight) in lard, 32 hours): 14.9 meq./kg
Peroxide value ([5]; 0.001 (% by weight) in lard, 40 hours): 419.9 meq./kg
Peroxide value ([5]; 0.005% by weight in lard, 8 hours): 1.8 meq./kg
Peroxide value ([5]; 0.005% by weight in lard, 16 hours): 5.0 meq./kg
Peroxide value ([5]; 0.005% by weight in lard, 24 hours): 5.9 meq./kg
Peroxide value ([5]; 0.005% by weight in lard, 32 hours): 6.3 meq./kg
Peroxide value ([5]; 0.005% by weight in lard, 48 hours): 12.0 meq./kg
Peroxide value ([5]; 0.005% by weight in lard, 56 hours): 18.2 meq./kg
Peroxide value ([5]; 0.005% by weight in lard, 64 hours): 560.9 meq./kg
prevention of oxidative denaturation of lard, compared with 0.02% by weight of BHA ([5]; 0.005% by weight of the compound in lard): to the same extent as done by adding 0.02% by weight of BHA
Peroxide value ([5]; 0.01% by weight in lard, 8 hours): 1.5 meq./kg
Peroxide value ([5]; 0.01% by weight in lard, 16 hours): 3.2 meq./kg
Peroxide value ([5]; 0.01% by weight in lard, 24 hours): 4.8 meq./kg
Peroxide value ([5]; 0.01% by weight in lard, 32 hours): 5.4 meq./kg
Peroxide value ([5]; 0.01% by weight in lard, 40 hours): 7.7 meq./kg
Peroxide value ([5]; 0.01% by weight in lard, 48 hours): 9.3 meq./kg
Peroxide value ([5]; 0.01% by weight in lard, 56 hours): 11.3 meq./kg
Peroxide value ([5]; 0.01% by weight in lard, 64 hours): 15.4 meq./kg
Peroxide value ([5]; 0.01% by weight in lard, 72 hours): 22.1 meq./kg
Peroxide value ([5]; 0.01% by weight in lard, 80 hours): 170.9 meq./kg
anti-oxidative effect compared with the same amount of BHA ([5]; 0.02% by weight): approximately twice as high as the same amount of BHA
Peroxide value ([5]; 0.02% by weight in lard, 8 hours): 1.8 meq./kg
Peroxide value ([5]; 0.02% by weight in lard, 16 hours): 2.9 meq./kg
Peroxide value ([5]; 0.02% by weight in lard, 24 hours): 3.8 meq./kg
Peroxide value ([5]; 0.02% by weight in lard, 32 hours): 4.5 meq./kg
Peroxide value ([5]; 0.02% by weight in lard, 40 hours): 6.0 meq./kg
Peroxide value ([5]; 0.02% by weight in lard, 48 hours): 7.2 meq./kg
Peroxide value ([5]; 0.02% by weight in lard, 56 hours): 8.2 meq./kg
Peroxide value ([5]; 0.02% by weight in lard, 64 hours): 10.6 meq./kg
Peroxide value ([5]; 0.02% by weight in lard, 72 hours): 13.2 meq./kg
Peroxide value ([5]; 0.02% by weight in lard, 80 hours): 14.5 meq./kg
Peroxide value ([5]; 0.02% by weight in lard, 96 hours): 21.5 meq./kg
Peroxide value ([5]; 0.02% by weight in lard, 112 hours): 59.3 meq./kg
Peroxide value ([5]; 0.02% by weight in lard, 120 hours): 390.7 meq./kg
Peroxide value ([5]; 0.1% by weight in lard, 8 hours): 2.1 meq./kg
Peroxide value ([5]; 0.1% by weight in lard, 16 hours): 3.0 meq./kg
Peroxide value ([5]; 0.1% by weight in lard, 24 hours): 4.1 meq./kg
Peroxide value ([5]; 0.1% by weight in lard, 32 hours): 5.2 meq./kg
Peroxide value ([5]; 0.1% by weight in lard, 40 hours): 7.9 meq./kg
Peroxide value ([5]; 0.1% by weight in lard, 48 hours): 8.7 meq./kg
Peroxide value ([5]; 0.1% by weight in lard, 56 hours): 9.9 meq./kg
Peroxide value ([5]; 0.1% by weight in lard, 64 hours): 11.8 meq./kg
Peroxide value ([5]; 0.1% by weight in lard, 72 hours): 13.5 meq./kg
Peroxide value ([5]; 0.1% by weight in lard, 80 hours): 16.0 meq./kg
Peroxide value ([5]; 0.1% by weight in lard, 96 hours): 18.5 meq./kg
Peroxide value ([5]; 0.1% by weight in lard, 112 hours): 24.0 meq./kg
Peroxide value ([5]; 0.1% by weight in lard, 120 hours): 24.1 meq./kg
Peroxide value ([5]; 0.1% by weight in lard, 144 hours): 29.9 meq./kg
Peroxide value ([5]; 0.1% by weight in lard, 168 hours): 32.1 meq./kg
Peroxide value ([5]; 0.1% by weight in lard, 192 hours): 38.1 meq./kg
Peroxide value ([5]; 0.1% by weight in lard, 200 hours): 45.0 meq./kg
Peroxide value ([5]; 0.1% by weight in lard, 264 hours): 678.2 meq./kg
anti-oxidative activities (summary of peroxide value and oxygen absorption tests) ([6]; AOM peroxide value and oxygen absorption): excellent anti-oxidative activities
anti-oxidative activities compared with the conventional anti-oxidant BHA ([6]; in foodstuffs, such as lard or the like): much higher anti-oxidative activities than the conventional anti-oxidant BHA
